The values that follow come from patent US9919998B2, “Antibacterial agents: Nα-aroyl-N-aryl-phenylalaninamides” (priority 2014, dated 2018).

In brackets after ≈: the same amount, converted by molar mass. Like-named read-outs stand apart in the source and are kept apart here.

Format in all cases: cell-based
The subject of assay [1] is Mycobacterium smegmatis ATCC 19420. The experiment in a line: Broth microdilution MIC, M. smegmatis. Particulars: Mycolicibacterium smegmatis. The source says: MICs in Mycobacterium smegmatis ATCC 19420 and Mycobacterium smegmatis ATCC 19420 derivatives were quantified using broth microdilution assays as described [Clinical and Laboratory Standards Institute (CLSI/NCCLS) (2009) Methods for Dilution Antimicrobial Susceptibility Tests for Bacteria That Grow Aerobically; Approved Standard, Eighth Edition. CLIS Document M07-A8 (CLIS, Wayne Pa.)].

In assay [2] the test system is Mycobacterium avium ATCC 25291. Briefly: Microplate Alamar Blue assay (MABA) MIC, M. avium. Particulars: ATCC25291, M. avium ATCC 25291. The source says:
(§1) Minimal inhibitory concentrations (MICs) in Mycobacterium tuberculosis H37Rv and Mycobacterium avium ATCC 25291 were quantified using microplate Alamar Blue assays as described (MABA; [Collins, L. & Franzblau, S. (1997) Microplate Alamar Blue assay versus BACTEC 460 system for high-throughput screening of compounds against Mycobacterium tuberculosis and Mycobacterium avium. Antimicrob. Agents Chemother. 41, 1004-1009]).

For assay [3], the system named is Mycobacterium tuberculosis H37Rv. The experiment in a line: Microplate Alamar Blue assay (MABA) MIC, M. tuberculosis. As to conditions: read-out: MIC Mycobacterium tuberculosis H37Rv.
Description: as §1
Background: Alamar Blue is a resazurin reagent that responds to reducing activity.

The mark [4] stands for this setting: ATCC19420, M. smegmatis ATCC 19420, read-out: MIC Mycobacterium smegmatis ATCC 19420.
[5] abbreviates: ATCC19420, broth microdilution assays, M. smegmatis ATCC19420, read-out: Inhibition of mycobacterial growth in culture (MICs).

For `O=C(N[C@@H](Cc1ccccc1)C(=O)Nc1cc(F)ccc1N1CCNCC1)c1ccccc1F` (racemic) [IX-214b], the MIC in assay [1] (setting [4]) was 6.25 µg/mL (≈ 13.5 µM); in assay [2], 12.5 µg/mL (≈ 26.9 µM); in assay [3], 12.5 µg/mL (≈ 26.9 µM).
For the compound `O=C(N[C@@H](Cc1ccccc1)C(=O)Nc1cc(Cl)ccc1N1CCNCC1)c1ccccc1F` (racemic) [IX-274b], the MIC in assay [1] (setting [4]), in assay [2] and in assay [3] was 6.25 µg/mL (≈ 13 µM) each time.
`O=C(NC(Cc1ccccc1)C(=O)Nc1ccccc1F)c1ccccc1` [AAP3, Nα-benzoyl-N-(2-fluorophenyl)-D/L-phenylalaninamide]: the MIC in assay [1] (setting [5]) is 1.56 µg/mL (≈ 4.3 µM).
Still for that read-out and setting: next, `O=C(NC(Cc1ccccc1)C(=O)Nc1ccccc1)c1ccccc1` [AAP4, Nα-benzoyl-N-phenyl-D/L-phenylalaninamide]: 0.78 µg/mL (≈ 2.26 µM); `O=C(NC(Cc1ccccc1)C(=O)Nc1ccncc1)c1ccccc1` [AAP5, Nα-benzoyl-N-(4-pyridyl)-D/L-phenylalaninamide]: 12.5 µg/mL (≈ 36.2 µM).
`O=C(NC(Cc1ccccc1)C(=O)Nc1ccccn1)c1ccccc1` (centres unmarked) [AAP6]: the MIC in assay [1] (setting [5]) turned out to be 1.56 µg/mL (≈ 4.52 µM).
For `Cc1ccc(Cl)cc1NC(=O)[C@@H](Cc1ccccc1)NC(=O)c1ccccc1F` [IX-55a], the figures for the MIC in assay [1] (setting [4]), in assay [2] and in assay [3] were 0.073 µg/mL (≈ 0.178 µM), 0.78 µg/mL (≈ 1.9 µM) and 0.78 µg/mL (≈ 1.9 µM), respectively.
`Cc1ccc(Cl)cc1NC(=O)[C@H](Cc1ccccc1)NC(=O)c1ccccc1F` [IX-55b]: the results for the MIC in assay [1] (setting [4]), in assay [2] and in assay [3] were 25 µg/mL (≈ 60.8 µM), more than 50 µg/mL and more than 50 µg/mL, respectively.
As for `O=C(NC(Cc1ccc(O)cc1)C(=O)Nc1cccc2c1OCO2)c1ccccc1Br` (centres unmarked) [IX-125, N-(1-(benzo[d][1,3]dioxol-4-ylamino)-3-(4-hydroxyphenyl)-1-oxopropan-2-yl)-2-bromobenzamide], the MIC in assay [1] (setting [4]) came out at 1.56 µg/mL (≈ 3.23 µM); in assay [2] it was 50 µg/mL (≈ 103 µM); in assay [3], 25 µg/mL (≈ 51.7 µM).
In the case of `CC(=O)N1CCN(c2ccccc2NC(=O)C(Cc2ccccc2)NC(=O)c2ccccc2)CC1` (centres unmarked) [IX-236, N-(1-((2-(4-acetylpiperazin-1-yl)phenyl)amino)-1-oxo-3-phenyl-propan-2-yl)benzamide], the MIC in assay [1] (setting [4]) turned out to be 0.195 µg/mL (≈ 0.414 µM); in assay [2] it was 6.25 µg/mL (≈ 13.3 µM); in assay [3], 6.25 µg/mL (≈ 13.3 µM).
As for `CNC(=O)N1CCN(c2ccccc2NC(=O)C(Cc2ccccc2)NC(=O)c2ccccc2)CC1` (centres unmarked) [IX-238, 4-(2-(2-benzamido-3-phenylpropanamido)phenyl)-N-methyl-piperazine-1-carboxamide], the MIC came to 0.195 µg/mL (≈ 0.402 µM) in assay [1] (setting [4]), 1.56 µg/mL (≈ 3.21 µM) in assay [2] and 1.56 µg/mL (≈ 3.21 µM) in assay [3].
`O=C(NC(Cc1ccccc1)C(=O)Nc1cc(F)ccc1N1CCN(CCO)CC1)c1cccs1` (centres unmarked) [IX-247, N-(1-((5-fluoro-2-(4-(2-hydroxyethyl)piperazin-1-yl)phenyl)amino)-1-oxo-3-phenylpropan-2-yl)thiophene-2-carboxamide]: the MIC in assay [1] (setting [4]) was 0.39 µg/mL (≈ 0.785 µM); in assay [2], 3.12 µg/mL (≈ 6.29 µM); in assay [3] it was 1.56 µg/mL (≈ 3.14 µM).
Turning to `COc1ccc(F)cc1NC(=O)C(Cc1ccccc1)NC(=O)c1ccccc1C` (centres unmarked) [IX-277, N-(1-((5-fluoro-2-methoxyphenyl)amino)-1-oxo-3-phenylpropan-2-yl)-2-methylbenzamide], the MIC in assay [1] (setting [4]) amounted to 0.39 µg/mL (≈ 0.96 µM); in assay [2], 0.39 µg/mL (≈ 0.96 µM); in assay [3], 0.31 µg/mL (≈ 0.763 µM).
On to `Cn1ncc2c(NC(=O)C(Cc3ccccc3)NC(=O)c3ccccc3F)cccc21` (centres unmarked) [IX-296, 2-fluoro-N-(1-((1-methyl-1H-indazol-4-yl)amino)-1-oxo-3-phenyl-propan-2-yl)benzamide], for which the MIC in assay [1] (setting [4]) was determined as 0.78 µg/mL (≈ 1.87 µM); in assay [2], 1.56 µg/mL (≈ 3.75 µM); in assay [3], 1.56 µg/mL (≈ 3.75 µM).
As to `NC1CCN(c2ccc(F)cc2NC(=O)C(Cc2ccccc2)NC(=O)c2ccccc2F)C1` (centres unmarked) [IX-306, N-(1-((2-(3-aminopyrrolidin-1-yl)-5-fluorophenyl)amino)-1-oxo-3-phenylpropan-2-yl)-2-fluorobenzamide], the MIC in assay [1] (setting [4]) was 0.78 µg/mL (≈ 1.68 µM).
